# Experimental data reported in patent US20160317419A1, “METHOD OF IMPROVING SKIN HEALTH AND COMPOSITIONS THEREFOR” (The Procter & Gamble Company, priority 2015, published 2016).
# What was measured:
# Assay type in all cases: cell-based
# [1] = test system: human dermal fibroblasts obtained from the BJ cell line; test: ECAR Method: glycolytic ATP production rate of fibroblasts exposed to hydrogen peroxide; conditions: for % Change from Control: vs media control
# Experimental: Glycolytic ATP production by fibroblasts exposed to hydrogen peroxide was determined using an XF Extracellular Flux brand analyzer available from Seahorse Bioscience, Massachusetts The analyzer measured extracellular acidification rate (“ECAR”) in real time, which correlates to glycolytic ATP production. The cells used in this test were frozen human dermal fibroblasts obtained from the BJ cell line commercially available from ATCC, Bethesda, Md. […] The fibroblasts were plated at 8×10^4 cells per well in gelatin-coated plates 24 hours prior to testing. Each well included 100 μL of the culture medium described above. The gelatin-coated plates are prepared by coating each well in a multi-well plate (e.g., 24-well or 96-well plates available from Seahorse Biosciences, Massachusetts) with 0.2% gelatin (protein solution available from Sigma) diluted with phosphate buffered saline (“PBS”). The gelatin is diluted 1:10 to 0.2% in sterile PBS at 37° C., and then 50 uL of the diluted gelatin solution is added to each well and incubated at room temperature for 30 minutes. Excess liquid is removed by aspiration without touching the wells and the surface is allowed to dry for at least 2 hours. Hydrogen peroxide is a well-known ROS, and is used in this example as a source of oxidative stress on the fibroblasts being tested. A stressor solution of hydrogen peroxide was prepared at 10× working concentration in the fibroblast test medium described above. The test agents (i.e., nicotinamide riboside, niacinamide, and nicotinamide riboside+niacinamide in combination) were prepared at 10× the final working concentration in the fibroblast test medium to provide test agent solutions. The stressor solution and the test agent solutions were warmed to 37° C. and pH adjusted to 7.4. A fibroblast test medium was made from Dulbecco's Modified Eagle Medium (available from Seahorse Bioscience), 25 mM glucose and 1 mM pyruvate. The fibroblast test medium was warmed to 37° C. and the pH adjusted to 7.4. The cells were grown and plated at 37° C. and 5% CO2 air. The culture medium in the wells was replaced by the fibroblast test medium 1 hour prior to taking measurements. Each well contained approximately 8×10^4 cells and 600 μL of fibroblast test medium (i.e., DMEM, 25 mM glucose and 1 mM pyruvate) at 37° C. and pH 7.4. The plates containing the samples to be tested were loaded into the analyzer and equilibrated according to the manufacturer's instructions. The test agent solutions and stressor solution were each placed in an automated injection port of the XF cartridge plate. The analyzer was programmed to sequentially run a two minute mix cycle, a two minute wait cycle, and a 3 minute measurement cycle continuously for at least 88 minutes. Data points were collected and recorded by the analyzer. The analyzer was allowed to complete three cycles prior to the addition of a stressor solution or test agent solution to provide a basal ECAR value. After the third cycle was completed (i.e., about 21 minutes after detection began), the test solution and/or stressor solution was added to the wells by the analyzer from the appropriate injection port. A stressor solution was added to the well in sufficient amount to provide 1.5 mM hydrogen peroxide in the well. The test agent solution was added in sufficient amount to provide 250 μM or 500 μM niacinamide or nicotinamide riboside in the well.
# [2] = test system: keratinocytes; test: ATP Assay: ATP depletion caused by hydrogen peroxide in keratinocytes (Cell Titer-Glo); conditions: 1 hour
# Experimental: The keratinocytes were cultured in T150 flasks using EPILIFE brand culture medium (calcium free and phenol red free, supplemented with penicillin/streptomycin and keratinocytes growth supplement, Invitrogen cat# […]500). The keratinocytes were then plated in 24 well plates with 40,000 cells/well and 1 ml of culture medium. After 24 hours, the keratinocytes were treated with 500 uM hydrogen peroxide alone, 400 uM niacinamide, 400 uM nicotinamide riboside or a combination of niacinamide and nicotinamide riboside (400 uM each) for 1 hour. Untreated keratinocytes were used as a control (i.e., keratinocytes in culture medium). The keratinocytes were washed in PBS and ATP levels were measured using the Cell Titer-Glo® brand ATP assay available from Promega, Madison, Wis. as catalogue # G7571/2/3 according to the manufacturer's instructions. Luminescence was measured on a SPECTRAMAX M3 brand microplate reader (Molecular Devices, Sunnyvale, Calif.). The net luminescence for a test sample is calculated by subtracting the observed luminescence value for the control from the observed luminescence value for the test sample.
# [3] = test system: antioxidant response element (ARE); test: ARE Assay (ARE-32 luciferase reporter cell line); conditions: 24 hrs, control subtracted
# Experimental: ARE activation was quantitated using the ARE-32 reporter cell line available from CXR-Biosciences as described in the ARE Assay below. ARE-32 is a stable MCF7 cell line containing pGL8x-ARE (8 copies of the rat GST ARE linked to the luciferase gene) and pCDNA3.1, which contains the neomycin selectable marker. Selection was performed in the presence of G418 and resistant clones were isolated. Clones were screened for induction of luciferase in response to tBHQ. The ARE-32 cells are maintained routinely in the DMEM (phenol red free) containing: 10% FBS, 50 units/ml penicillin & 50 μg/ml streptomycin, 0.8 mg/ml G418. Cells are subcultured every 3-4 days. Cells were frozen in medium that contains 90% FBS and 10% DMSO. In a 96 well-plate, seed 1×10^4 cells/well in 100 μl DMEM containing 50 units/ml penicillin, 50 μg/ml streptomycin, 0.8 mg/ml G418 and 10% FBS. Next, incubate the cells at 37° C. in a 5% CO2 incubator for 24 hrs, and then replace the medium with 100 μl fresh media. Treat with test compounds at 2 ul per well, positive control was 25 uM TBHQ. (10 mM tBHQ of stock solution freshly prepared in DMSO). Add 100 ul of media after treatment for a final assay volume of 200 uL. Incubate the cells at 37° C. in the CO2 incubator for another 24 hrs. Assay for luciferase activity with a STEADY-GLO brand assay system according to the manufacturer's instructions. A general schematic for how the ARE reporter assay operates to identify agents that promote transcription off the ARE is described in U.S. Publication No. 2011/0262570. The results of the test are illustrated in Table 1 and FIG. 3. The ARE activity for […] (“NR”), niacinamide (“N”) and the combination of nicotinamide riboside and niacinamide is reported as net luminescence in Table 1. Net luminescence for a test sample is determined by subtracting the luminescence value of the control from the luminescence value of the test sample. The calculated net luminescence for NR+N is the sum of the individual measured luminescence values for NR and N.
# [4] = 500 μM test agent with 1.5 mM hydrogen peroxide
# [5] = 400 uM (each) with 500 uM hydrogen peroxide
molecule,measurement,setting,value
"OO [Hydrogen Peroxide, hydrogen peroxide, reference compound]",Observed ECAR,[1]; 1.5 mM hydrogen peroxide alone,8.96 mpH/min
same,% Change from Control,[1]; 1.5 mM hydrogen peroxide alone,−70.0%
same,% depletion vs. control (ATP),[2]; 500 uM hydrogen peroxide alone,~97.5%
same,Net Luminescence AVG,[2]; 500 uM hydrogen peroxide alone,1556
same,% depletion vs. control (ATP),"[2]; 500 uM hydrogen peroxide alone, listed as H2O2",97.5%
"NC(=O)c1cccnc1 [N, niacinamide]",Net Luminescence,"[3]; NR 0.011 w/v %, N 0.0125 w/v %",13
same,Net Luminescence,"[3]; NR 0.021 w/v %, N 0.025 w/v %",26
same,Net Luminescence,"[3]; NR 0.042 w/v %, N 0.05 w/v %",71
same,Net Luminescence,"[3]; NR 0.0842 w/v %, N 0.1 w/v %",75
same,Observed ECAR,[1]; [4],15.35 mpH/min
same,% Change from Control,[1]; [4],−48.6%
same,% depletion vs. control (ATP),[2]; [5],89.7%
same,Net Luminescence AVG,[2]; [5],6539
same,% depletion vs. control (ATP),"[2]; 400 uM (each) with 500 uM hydrogen peroxide, listed as niacinamide",about 89.7%
nicotinamide riboside [NR],Net Luminescence,"[3]; NR 0.011 w/v %, N 0.0125 w/v %",205
same,Net Luminescence,"[3]; NR 0.021 w/v %, N 0.025 w/v %",594
same,Net Luminescence,"[3]; NR 0.042 w/v %, N 0.05 w/v %",1845
same,Net Luminescence,"[3]; NR 0.0842 w/v %, N 0.1 w/v %",5176
same,Observed ECAR,[1]; [4],14.31 mpH/min
same,% Change from Control,[1]; [4],−52.1%
same,% depletion vs. control (ATP),[2]; [5],96.9%
same,Net Luminescence AVG,[2]; [5],1971.5
same,% depletion vs. control (ATP),"[2]; 400 uM (each) with 500 uM hydrogen peroxide, listed as nicotinamide riboside",~96.9%
